Test results reported in ChEMBL document CHEMBL1150459, “The -iodoethoxyl group: a stable unit for radioiodination” (Bioorg Med Chem Lett, 1994).

Assays:
Mus musculus [1] = test: Biodistribution of [123I]- labeled compound in mice heart was determined after 30 sec of administration; expressed in percent of injected dose per gram of organ; assay type: ADME, organism-based; conditions: in vivo, 0.5 min
Mus musculus [2] = test: Biodistribution of [123I]- labeled compound in mice heart was determined after 5 min of administration; expressed in percent of injected dose per gram of organ; assay type: ADME, organism-based; conditions: in vivo
Mus musculus [3] = test: Biodistribution of [123I]- labeled compound in mice kidneys was determined after 1 min of administration; expressed in percent of injected dose per gram of organ; assay type: ADME, organism-based, Kidney; conditions: in vivo
Mus musculus [4] = test: Biodistribution of [123I]- labeled compound in mice kidneys was determined after 10 min of administration; expressed in percent of injected dose per gram of organ; assay type: ADME, organism-based, Kidney; conditions: in vivo
Mus musculus [5] = test: Biodistribution of [123I]- labeled compound in mice lungs was determined after 15 sec of administration; expressed in percent of injected dose per gram of organ; assay type: ADME, organism-based, Lung; conditions: in vivo, 15 s
Mus musculus [6] = test: Biodistribution of [123I]- labeled compound in mice lungs was determined after 2 min of administration; expressed in percent of injected dose per gram of organ; assay type: ADME, organism-based, Lung; conditions: in vivo
Mus musculus [7] = test: Biodistribution of [123I]- labeled compound in mice lungs was determined after 30 sec of administration; expressed in percent of injected dose per gram of organ; assay type: ADME, organism-based, Lung; conditions: in vivo, 0.5 min
Mus musculus [8] = test: Biodistribution of [123I]- labeled compound in mice lungs was determined after 5 min of administration; expressed in percent of injected dose per gram of organ; assay type: ADME, organism-based, Lung; conditions: in vivo
Mus musculus [9] = test: Biodistribution of [123I]- labeled compound in mice kidneys was determined after 15 sec of administration; expressed in percent of injected dose per gram of organ; assay type: ADME, organism-based, Kidney; conditions: in vivo, 15 s
Mus musculus [10] = test: Biodistribution of [123I]- labeled compound in mice kidneys was determined after 2 min of administration; expressed in percent of injected dose per gram of organ; assay type: ADME, organism-based, Kidney; conditions: in vivo
Mus musculus [11] = test: Biodistribution of [123I]- labeled compound in mice kidneys was determined after 30 sec of administration; expressed in percent of injected dose per gram of organ; assay type: ADME, organism-based, Kidney; conditions: in vivo, 0.5 min
Mus musculus [12] = test: Biodistribution of [123I]- labeled compound in mice kidneys was determined after 5 min of administration; expressed in percent of injected dose per gram of organ; assay type: ADME, organism-based, Kidney; conditions: in vivo
Mus musculus [13] = test: Biodistribution of [123I]- labeled compound in mice liver was determined after 1 min of administration; expressed in percent of injected dose per gram of organ; assay type: ADME, organism-based; conditions: in vivo
Mus musculus [14] = test: Biodistribution of [123I]- labeled compound in mice liver was determined after 10 min of administration; expressed in percent of injected dose per gram of organ; assay type: ADME, organism-based; conditions: in vivo
Mus musculus [15] = test: Biodistribution of [123I]- labeled compound in mice liver was determined after 15 sec of administration; expressed in percent of injected dose per gram of organ; assay type: ADME, organism-based; conditions: in vivo, 15 s
Mus musculus [16] = test: Biodistribution of [123I]- labeled compound in mice liver was determined after 2 min of administration; expressed in percent of injected dose per gram of organ; assay type: ADME, organism-based; conditions: in vivo
Mus musculus [17] = test: Biodistribution of [123I]- labeled compound in mice liver was determined after 30 sec of administration; expressed in percent of injected dose per gram of organ; assay type: ADME, organism-based; conditions: in vivo, 0.5 min
Mus musculus [18] = test: Biodistribution of [123I]- labeled compound in mice lungs was determined after 1 min of administration; expressed in percent of injected dose per gram of organ; assay type: ADME, organism-based, Lung; conditions: in vivo
Mus musculus [19] = test: Biodistribution of [123I]- labeled compound in mice lungs was determined after 10 min of administration; expressed in percent of injected dose per gram of organ; assay type: ADME, organism-based, Lung; conditions: in vivo
Mus musculus [20] = test: Biodistribution of [123I]- labeled compound in mice brain was determined after 1 min of administration; expressed in percent of injected dose per gram of organ; assay type: ADME, organism-based; conditions: in vivo
Mus musculus [21] = test: Biodistribution of [123I]- labeled compound in mice brain was determined after 10 min of administration; expressed in percent of injected dose per gram of organ; assay type: ADME, organism-based; conditions: in vivo
Mus musculus [22] = test: Biodistribution of [123I]- labeled compound in mice brain was determined after 2 min of administration; expressed in percent of injected dose per gram of organ; assay type: ADME, organism-based; conditions: in vivo
Mus musculus [23] = test: Biodistribution of [123I]- labeled compound in mice brain was determined after 30 sec of administration; expressed in percent of injected dose per gram of organ; assay type: ADME, organism-based; conditions: in vivo, 0.5 min
Mus musculus [24] = test: Biodistribution of [123I]- labeled compound in mice brain was determined after 5 min of administration; expressed in percent of injected dose per gram of organ; assay type: ADME, organism-based; conditions: in vivo
Mus musculus [25] = test: Biodistribution of [123I]- labeled compound in mice heart was determined after 10 min of administration; expressed in percent of injected dose per gram of organ; assay type: ADME, organism-based; conditions: in vivo
Mus musculus [26] = test: Biodistribution of [123I]- labeled compound in mice heart was determined after 15 sec of administration; expressed in percent of injected dose per gram of organ; assay type: ADME, organism-based; conditions: in vivo, 15 s
Mus musculus [27] = test: Biodistribution of [123I]- labeled compound in mice heart was determined after 1 min of administration; expressed in percent of injected dose per gram of organ; assay type: ADME, organism-based; conditions: in vivo
Mus musculus [28] = test: Biodistribution of [123I]- labeled compound in mice heart was determined after 2 min of administration; expressed in percent of injected dose per gram of organ; assay type: ADME, organism-based; conditions: in vivo
Mus musculus [29] = test: Biodistribution of [123I]- labeled compound in mice liver was determined after 5 min of administration; expressed in percent of injected dose per gram of organ; assay type: ADME, organism-based; conditions: in vivo
Mus musculus [30] = test: Biodistribution of [123I]- labeled compound in mice brain was determined after 15 sec of administration; expressed in percent of injected dose per gram of organ; assay type: ADME, organism-based; conditions: in vivo, 15 s

- Biodistribution (Mus musculus [1]): 7.9%
- Biodistribution (Mus musculus [2]): 4.2%
- Biodistribution (Mus musculus [3]): 9%
- Biodistribution (Mus musculus [4]): 12.7%
- Biodistribution (Mus musculus [5]): 18.4%
- Biodistribution (Mus musculus [6]): 10.9%
- Biodistribution (Mus musculus [7]): 12.6%
- Biodistribution (Mus musculus [8]): 8.8%
- Biodistribution (Mus musculus [9]): 8.6%
- Biodistribution (Mus musculus [10]): 11.3%
- Biodistribution (Mus musculus [11]): 8.8%
- Biodistribution (Mus musculus [12]): 13.2%
- Biodistribution (Mus musculus [13]): 7.8%
- Biodistribution (Mus musculus [14]): 7.1%
- Biodistribution (Mus musculus [15]): 2.3%
- Biodistribution (Mus musculus [16]): 8.5%
- Biodistribution (Mus musculus [17]): 5.5%
- Biodistribution (Mus musculus [18]): 12%
- Biodistribution (Mus musculus [19]): 6.5%
- Biodistribution (Mus musculus [20]): 4.7%
- Biodistribution (Mus musculus [21]): 1.6%
- Biodistribution (Mus musculus [22]): 4.1%
- Biodistribution (Mus musculus [23]): 5.1%
- Biodistribution (Mus musculus [24]): 2.4%
- Biodistribution (Mus musculus [25]): 3.2%
- Biodistribution (Mus musculus [26]): 17.8%
- Biodistribution (Mus musculus [27]): 6.2%
- Biodistribution (Mus musculus [28]): 5.3%
- Biodistribution (Mus musculus [29]): 9.9%
- Biodistribution (Mus musculus [30]): 5.5%
Structure (SMILES): O=C(O)CCOCCI
